Measured values taken from US20140378531A1, “INHIBITION OF PATTERN RECOGNITION RECEPTORS IN PANCREATIC CANCER TREATMENT USING TLR INHIBITORS” (NEW YORK UNIVERSITY, priority 2012, published 2014).

How the values were obtained:
Format in all cases: in vivo
[1] = molecular target: T1, TLR7 (Mus musculus, UniProt P58681); test: TLR7 blockade in caerulein-accelerated pancreatic carcinogenesis in p48Cre;Kras^G12D mice; conditions: caerulein 50 μg/kg, two doses over 48 hours
T1 construct: from tissue; host or cells: whole animal: p48Cre;Kras^G12D mice and WT C57BL/6 mice; TLR7 on pancreatic leukocytes and epithelial cells
T1 sequence (P58681 27-1050): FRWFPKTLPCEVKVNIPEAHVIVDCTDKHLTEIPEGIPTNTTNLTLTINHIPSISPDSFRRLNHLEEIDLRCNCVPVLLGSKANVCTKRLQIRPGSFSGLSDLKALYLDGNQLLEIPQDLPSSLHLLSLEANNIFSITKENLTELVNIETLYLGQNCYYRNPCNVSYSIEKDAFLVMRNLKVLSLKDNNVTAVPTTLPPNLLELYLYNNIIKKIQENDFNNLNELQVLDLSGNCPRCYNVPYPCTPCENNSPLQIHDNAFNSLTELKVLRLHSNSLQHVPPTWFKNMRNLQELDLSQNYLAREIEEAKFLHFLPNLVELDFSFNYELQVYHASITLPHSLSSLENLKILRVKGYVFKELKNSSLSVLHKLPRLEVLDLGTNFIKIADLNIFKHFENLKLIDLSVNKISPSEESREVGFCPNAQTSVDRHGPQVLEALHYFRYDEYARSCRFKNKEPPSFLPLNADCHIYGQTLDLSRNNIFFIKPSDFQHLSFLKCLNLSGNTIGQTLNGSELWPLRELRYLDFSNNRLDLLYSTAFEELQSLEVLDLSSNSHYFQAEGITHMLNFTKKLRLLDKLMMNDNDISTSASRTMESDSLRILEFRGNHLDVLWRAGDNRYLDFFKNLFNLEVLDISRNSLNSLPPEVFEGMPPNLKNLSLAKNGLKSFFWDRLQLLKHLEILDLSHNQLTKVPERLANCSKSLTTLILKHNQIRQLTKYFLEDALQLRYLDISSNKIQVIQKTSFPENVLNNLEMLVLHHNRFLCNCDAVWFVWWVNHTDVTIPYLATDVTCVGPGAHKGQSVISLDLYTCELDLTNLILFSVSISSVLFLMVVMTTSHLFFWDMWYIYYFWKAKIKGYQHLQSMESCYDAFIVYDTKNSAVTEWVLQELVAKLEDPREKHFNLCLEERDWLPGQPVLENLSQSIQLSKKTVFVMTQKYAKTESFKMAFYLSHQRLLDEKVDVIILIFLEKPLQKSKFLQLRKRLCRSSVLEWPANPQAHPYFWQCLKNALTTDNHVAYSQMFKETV

[2] = test system: MAP Kinase; test: MAP Kinase or NF-κB blockade in caerulein + ssRNA40 pancreatitis; conditions: mice, caerulein for 3 weeks + ssRNA40 + pathway blockade
Method: FIG. 15. TLR7 agonists exacerbate pancreatic inflammation via NF-κB and MAP Kinase dependent mechanisms. Mice were treated for 3 weeks with caerulein to induce pancreatitis.
In vivo TLR7 ligation was accomplished by thrice weekly i.p administration of selective TLR7 agonists (ssRNA40, E. coli RNA, or Adenine analogue, all 100 μg/kg; Invivogen, San Diego, Calif.). TLR7 blockade was accomplished using an oligonucleotide inhibitor of TLR7 (Guiducci et al., 2010) (IRS661, 100 μg, 3× per week; Dynavax, Berkeley, Calif.). Bone marrow chimeric animals were created by irradiating mice ([…]) followed by i.v. bone marrow transfer (1×10^7 cells) from non-irradiated donors as described (Bedrosian et al., 2011) Chimeric mice were employed in experiments 7 weeks later. In selected experiments, to accelerate carcinogenesis in p48Cre;Kras^G12D mice, two doses of caerulein (50 μg/kg) were administered over 48 hours as described (Carriere et al., 2009). MAP Kinase signaling blockade was accomplished using the MKK inhibitor PD98059 (2.5 mg/kg/day), the p38 inhibitor SB203580 (30 mg/kg/day), or the JNK inhibitor SP600125 (50 mg/kg/day; all Invivogen). Selective NF-κB signaling blockade was accomplished using either the NEMO binding domain inhibitor (1 mg/kg/day, EMD4Biosciences, Gibbstown, N.J.) or the IkB inhibitor Bay11-7082 (1.25 mg/kg/day; Invivogen). […]

[3] = L-arginine induced pancreatic injury; conditions: WT mice, L-arginine for one week

caerulein
pancreatic histology after caerulein alone [1]: developed invasive pancreatic adenocarcinoma within an extensive bed of fibro-inflammatory stroma

COc1cccc(-c2cc(=O)c3ccccc3o2)c1N [PD98059]
effects of TLR7 ligation on fibro-inflammatory pancreatic disease [2]: protected from effects of TLR7 ligation

N=C(N)NCCC[C@H](N)C(=O)O [L-arginine]
pancreatic injury [3]: induced mild pancreatic edema and inflammation
